Measurements from PubChem BioAssay AID248 (DTP/NCI, 2004).
Where “and” joins values, the source holds several entries; their conditions need not be identical. Equal values may be shown once. Toxic doses and inconclusive results are not listed. No stated cut-off is given here; in the data, active means T/C of 150% or more; inactive means T/C below 125%.

System: L1210 leukemia ip in BDF1 mice, survival T/C
Assay: NCI In Vivo Anticancer Drug Screen. Data for tumor model L1210 Leukemia (intraperitoneal) in B6D2F1 (BDF1) mice
Conditions: endpoint: mean survival time, higher = longer survival
Method in brief: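 Tumor cells were implanted, animals were treated, and survival was followed. The result divides the treated measurement by the vehicle-control measurement.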

[1] = dose: 100.0 mg/kg/injection, schedule: Q01DX009 (ip), vehicle: saline with Tween-80
[2] = dose: 200.0 mg/kg/injection, schedule: Q01DX009 (ip), vehicle: saline with Tween-80
[3] = dose: 400.0 mg/kg/injection, schedule: Q01DX009 (ip), vehicle: saline with Tween-80
[4] = dose: 100.0 mg/kg/injection, schedule: Q01DX001 (ip), vehicle: carboxymethylcellulose (CMC)
[5] = dose: 100.0 mg/kg/injection, schedule: Q04DX002 (ip), vehicle: Klucel (hydroxypropylcellulose) (HPC)
[6] = dose: 200.0 mg/kg/injection, schedule: Q04DX002 (ip), vehicle: Klucel (hydroxypropylcellulose) (HPC)
[7] = dose: 400.0 mg/kg/injection, schedule: Q04DX002 (ip), vehicle: Klucel (hydroxypropylcellulose) (HPC)
[8] = dose: 200.0 mg/kg/injection, schedule: Q01DX001 (ip), vehicle: carboxymethylcellulose (CMC)
[9] = dose: 400.0 mg/kg/injection, schedule: Q01DX001 (ip), vehicle: carboxymethylcellulose (CMC)
[10] = dose: 100.0 mg/kg/injection, schedule: Q01DX009 (ip), vehicle: Klucel (hydroxypropylcellulose) (HPC)
[11] = dose: 200.0 mg/kg/injection, schedule: Q01DX009 (ip), vehicle: Klucel (hydroxypropylcellulose) (HPC)
[12] = dose: 400.0 mg/kg/injection, schedule: Q01DX009 (ip), vehicle: Klucel (hydroxypropylcellulose) (HPC)
[13] = dose: 100.0 mg/kg/injection, schedule: Q04DX003 (ip), vehicle: Klucel (hydroxypropylcellulose) (HPC)
[14] = dose: 200.0 mg/kg/injection, schedule: Q04DX003 (ip), vehicle: Klucel (hydroxypropylcellulose) (HPC)
[15] = dose: 400.0 mg/kg/injection, schedule: Q04DX003 (ip), vehicle: Klucel (hydroxypropylcellulose) (HPC)
[16] = dose: 50.0 mg/kg/injection, schedule: Q01DX009 (ip), vehicle: Klucel (hydroxypropylcellulose) (HPC)
[17] = dose: 10.0 mg/kg/injection, schedule: Q01DX001 (ip), vehicle: saline
[18] = dose: 20.0 mg/kg/injection, schedule: Q01DX001 (ip), vehicle: saline
[19] = dose: 100.0 mg/kg/injection, schedule: Q04DX003 (ip), vehicle: saline
[20] = dose: 100.0 mg/kg/injection, schedule: Q01DX001 (ip), vehicle: saline
[21] = dose: 200.0 mg/kg/injection, schedule: Q01DX001 (ip), vehicle: saline
[22] = dose: 400.0 mg/kg/injection, schedule: Q01DX001 (ip), vehicle: saline
[23] = dose: 50.0 mg/kg/injection, schedule: Q04DX003 (ip), vehicle: Klucel (hydroxypropylcellulose) (HPC)

Measured: T/C

O=C(c1ccccc1)c1ccc2ccc(F)cc2c1C(=O)O
inactive: [1] 113 % of control | dose: 100.0 mg/kg/injection, schedule: Q04DX003 (ip), vehicle: other 95 % of control | [2] 113 % of control | dose: 200.0 mg/kg/injection, schedule: Q04DX003 (ip), vehicle: other 103 % of control | [3] 107 % of control | dose: 400.0 mg/kg/injection, schedule: Q04DX003 (ip), vehicle: other 101 % of control

c1ccc2nc(OCCN3CC3)ccc2c1
inactive: [4] 108 % of control

O=NN(CCO)C(=O)Nc1ccc(NC(=O)N(CCO)N=O)cc1
inactive: dose: 9.0 mg/kg/injection, schedule: Q01DX001 (ip), vehicle: carboxymethylcellulose (CMC) 106 % of control | dose: 18.0 mg/kg/injection, schedule: Q01DX001 (ip), vehicle: carboxymethylcellulose (CMC) 108 % of control | dose: 26.0 mg/kg/injection, schedule: Q01DX001 (ip), vehicle: carboxymethylcellulose (CMC) 114 % of control | dose: 40.0 mg/kg/injection, schedule: Q01DX001 (ip), vehicle: carboxymethylcellulose (CMC) 111 % of control | dose: 60.0 mg/kg/injection, schedule: Q01DX001 (ip), vehicle: carboxymethylcellulose (CMC) 111 % of control

CC(C)(C)c1ccc(OCC(=O)O)c(Cl)c1
inactive: [1] 91 % of control | [2] 101 % of control

C(CCC1CCCC1)=C(CCCC1CCCC1)CCCC1CCCC1
inactive: dose: 100.0 mg/kg/injection, schedule: Q01DX001 (ip), vehicle: saline with Tween-80 100 % of control | dose: 200.0 mg/kg/injection, schedule: Q01DX001 (ip), vehicle: saline with Tween-80 94 % of control | dose: 400.0 mg/kg/injection, schedule: Q01DX001 (ip), vehicle: saline with Tween-80 91 % of control

Cc1cccc(Cl)c1NC(=O)C(Cl)Cl
inactive: [5] 113 % of control | [6] 107 % of control | [7] 110 % of control

c1ccc(-c2nccnc2-c2ccccc2)cc1
inactive: [5] 93 % of control | [6] 107 % of control | [7] 111 % of control

CN(C)Cc1cc2ccccc2cc1C(O)(c1ccccc1)c1ccccc1
inactive: dose: 50.0 mg/kg/injection, schedule: Q01DX001 (ip), vehicle: carboxymethylcellulose (CMC) 102 % of control | [4] 88 % of control | [8] 94 % of control | [9] 96 % of control

CC(=O)c1cccc(NC(=O)Oc2ccc3c(C)cc(=O)oc3c2)c1
inactive: [10] 98 % of control | [11] 101 % of control | [12] 101 % of control

O=C(Nc1ccccc1)OCCc1ccc([N+](=O)[O-])cc1
inactive: [13] 100 % of control | [14] 98 % of control | [15] 102 % of control

Cc1ccc(S(=O)(=O)[n+]2ccc(C)cc2)cc1
inactive: [5] 98 % of control | [6] 95 % of control

CNc1nc(N(C)C)nc(C)c1[N+](=O)[O-]
inactive: [16] 91 % of control | [10] 98 % of control | [11] 105 % of control

CCc1ccc(N)cc1
inactive: [17] 102 % of control | [18] 102 % of control | dose: 40.0 mg/kg/injection, schedule: Q01DX001 (ip), vehicle: saline 111 % of control

C[N+]1(C)N=C(c2ccccc2)C=C1[O-]
inactive: dose: 100.0 mg/kg/injection, schedule: Q04DX002 (ip), vehicle: other 111 % of control | dose: 200.0 mg/kg/injection, schedule: Q04DX002 (ip), vehicle: other 106 % of control | dose: 400.0 mg/kg/injection, schedule: Q04DX002 (ip), vehicle: other 100 % of control

CC(C)(CSCCSCC(C)(C)C(=O)O)C(=O)O
inactive: [10] 94 % of control | [11] 94 % of control | [12] 91 % of control

Cc1cc([N+](=O)[O-])sc1[N+](=O)[O-]
inactive: dose: 25.0 mg/kg/injection, schedule: Q01DX009 (ip), vehicle: saline 108 % of control | dose: 50.0 mg/kg/injection, schedule: Q01DX009 (ip), vehicle: saline 97 % of control | dose: 100.0 mg/kg/injection, schedule: Q01DX009 (ip), vehicle: saline 110 % of control | [19] 101 % of control

C[N+](C)(C)CCOc1ccc([N+](=O)[O-])cc1
inactive: dose: 50.0 mg/kg/injection, schedule: Q01DX001 (ip), vehicle: saline 95 % of control | [20] 104 % of control | [21] 92 % of control

O=C(O)/C=C\C(=O)Nc1ccccn1
inactive: [20] 92 % of control | [21] 100 % of control | [22] 103 % of control

Cc1cc(C)c(C(=O)OC(C)CNC2CCCCC2)c(C)c1 (stereo not drawn)
inactive: dose: 75.0 mg/kg/injection, schedule: Q01DX001 (ip), vehicle: carboxymethylcellulose (CMC) 96 % of control | dose: 150.0 mg/kg/injection, schedule: Q01DX001 (ip), vehicle: carboxymethylcellulose (CMC) 102 % of control

COc1ccc2c(c1)CCC1=C2CCC(C)(C(C)=O)C1C(=O)O (stereo not drawn)
inactive: dose: 25.0 mg/kg/injection, schedule: Q01DX009 (ip), vehicle: Klucel (hydroxypropylcellulose) (HPC) 101 % of control | dose: 25.0 mg/kg/injection, schedule: Q04DX003 (ip), vehicle: Klucel (hydroxypropylcellulose) (HPC) 97 % of control | [16] 98 % of control | [23] 100 % of control | [10] 95 % of control | [13] 102 % of control and 87 % of control

c1ccc([P+]2(Cc3cccc4ccccc34)CCc3[nH]c4ccccc4c3C2)cc1 (stereo not drawn)
inactive: [13] 96 % of control | [14] 98 % of control

CN(C)CCCNc1c2ccccc2nc2ccc(F)cc12
inactive: dose: 5.0 mg/kg/injection, schedule: Q01DX001 (ip), vehicle: saline 100 % of control | [17] 96 % of control | [18] 107 % of control

O=P(O)(c1ccccc1)c1ccc(I)cc1
inactive: [20] 100 % of control | [19] 100 % of control | [21] 96 % of control | dose: 200.0 mg/kg/injection, schedule: Q04DX003 (ip), vehicle: saline 96 % of control | [22] 98 % of control | dose: 400.0 mg/kg/injection, schedule: Q04DX003 (ip), vehicle: saline 94 % of control

CCN(CC)CCCC(C)Nc1cc(/C=C/c2ccc(Cl)cc2)nc(/C=C/c2ccc(Cl)cc2)n1 (stereo not drawn)
inactive: [23] 96 % of control | [20] 96 % of control | [13] 96 % of control | [21] 98 % of control | [14] 98 % of control

Cc1ccc(C)c(CCCC(=O)O)c1
inactive: [1] 96 % of control | [13] 105 % of control | [2] 93 % of control | [14] 94 % of control | [3] 104 % of control | [15] 100 % of control

CC(C)CCCC(C)C1CCC2C3CC(O)C45CC4CCC5(C)C3CCC12C (stereo not drawn)
inactive: [6] 89 % of control | [7] 92 % of control

CCCCCCCC/C=C\CCCCCCCCOC(N)=O
inactive: dose: 50.0 mg/kg/injection, schedule: Q01DX009 (ip), vehicle: other 96 % of control | dose: 100.0 mg/kg/injection, schedule: Q01DX009 (ip), vehicle: other 94 % of control | dose: 100.0 mg/kg/injection, schedule: Q04DX003 (ip), vehicle: saline with Tween-80 100 % of control | dose: 200.0 mg/kg/injection, schedule: Q01DX009 (ip), vehicle: other 89 % of control | dose: 200.0 mg/kg/injection, schedule: Q04DX003 (ip), vehicle: saline with Tween-80 95 % of control

O=S(=O)(Nc1ccccc1)c1ccccc1C(O)(c1ccccc1)c1ccccc1
inactive: [4] 106 % of control | [8] 90 % of control | [9] 93 % of control

CC1(N)COP(=O)(NC2CCCC2)OC1 (stereo not drawn)
inactive: [20] 100 % of control | [21] 105 % of control | [22] 91 % of control

COc1ccc(C2OCC(CCl)O2)cc1 (stereo not drawn)
inactive: dose: 55.0 mg/kg/injection, schedule: Q01DX Z (ip), vehicle: methylcellulose (MC) 109 % of control | dose: 83.0 mg/kg/injection, schedule: Q01DX Z (ip), vehicle: methylcellulose (MC) 103 % of control | dose: 125.0 mg/kg/injection, schedule: Q01DX Z (ip), vehicle: methylcellulose (MC) 101 % of control
